What was measured:
[1] = biological target: FAK recombinant protein (Homo sapiens (Human), UniProt Q05397); assay: Inhibitory activity against FAK enzyme (HTRF, TK substrate); assay type: biochemical
Description: A compound serially diluted with DMSO was mixed with a FAK recombinant protein. After the mixture was left to stand at room temperature for 10 min, a biotin-labeled TK substrate (TK) and ATP were added. […] The inhibition percentage and IC50 of the compound were calculated compared to the DMSO control group.

[2] = system: PC3 cells; assay: PC3 cell proliferation, 2D activity assay (Cell Titer-Lumi, 72 h); assay type: cell-based, human
[3] = system: PC3 cells; assay: PC3 cell proliferation, 3D activity assay (3D culture, 14 days); assay type: cell-based, human; settings: read-out: 3D inhibitory activity against PC3 cells IC50
[4] = Homo sapiens, PC-3, read-out: 2D inhibitory activity against PC3 cells IC50

Sequence of FAK recombinant protein (Q05397 whole entry): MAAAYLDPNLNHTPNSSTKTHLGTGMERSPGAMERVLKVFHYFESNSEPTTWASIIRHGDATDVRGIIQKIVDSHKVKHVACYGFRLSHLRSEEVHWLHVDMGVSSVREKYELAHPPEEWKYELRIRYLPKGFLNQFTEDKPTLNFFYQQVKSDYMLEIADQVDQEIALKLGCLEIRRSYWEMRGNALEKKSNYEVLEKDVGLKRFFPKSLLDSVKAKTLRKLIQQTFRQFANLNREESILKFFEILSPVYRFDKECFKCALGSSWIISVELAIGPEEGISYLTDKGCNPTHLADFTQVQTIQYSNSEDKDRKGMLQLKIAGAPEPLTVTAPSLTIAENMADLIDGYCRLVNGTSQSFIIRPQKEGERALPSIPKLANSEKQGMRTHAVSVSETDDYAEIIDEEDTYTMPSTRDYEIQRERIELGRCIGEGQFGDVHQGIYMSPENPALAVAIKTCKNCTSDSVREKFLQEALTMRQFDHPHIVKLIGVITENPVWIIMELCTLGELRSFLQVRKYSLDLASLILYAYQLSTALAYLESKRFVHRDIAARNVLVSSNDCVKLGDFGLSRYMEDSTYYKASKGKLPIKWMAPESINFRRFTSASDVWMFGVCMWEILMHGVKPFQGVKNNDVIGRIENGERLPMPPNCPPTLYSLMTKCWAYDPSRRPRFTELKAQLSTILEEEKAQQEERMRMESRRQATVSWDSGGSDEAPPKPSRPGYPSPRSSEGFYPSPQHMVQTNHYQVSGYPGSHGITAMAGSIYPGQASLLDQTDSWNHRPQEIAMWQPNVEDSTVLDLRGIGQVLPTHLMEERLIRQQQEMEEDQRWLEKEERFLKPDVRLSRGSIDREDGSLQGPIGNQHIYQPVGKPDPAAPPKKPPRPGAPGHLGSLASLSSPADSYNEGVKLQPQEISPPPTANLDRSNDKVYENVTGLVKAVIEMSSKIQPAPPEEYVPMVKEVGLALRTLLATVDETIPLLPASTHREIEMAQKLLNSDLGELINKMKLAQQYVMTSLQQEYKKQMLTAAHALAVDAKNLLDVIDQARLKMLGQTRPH

Row | SMILES | IC50 [1] [nM] | IC50 [2, 4] [nM] | IC50 ([3]; Homo sapiens, PC-3, 336 h) [nM] | IC50 ([2]; read-out: 2D inhibitory activity against PC3 cells IC50) [nM] | IC50 [3] [nM]
1 | COc1cc(N2C3CCC2CN(C)C3)ccc1Nc1ncc(Cl)c(Oc2cccc3c2C(=O)N(C)C32CC2)n1 [Compound 166] | < 20 | > 2000 | 5 to 50 | – | –
2 | COc1cc(N2CCC3C(CCN3C)C2)ccc1Nc1ncc(Cl)c(Oc2cccc3c2C(=O)N(C)C32CC2)n1 (stereo not drawn) [Compound 167] | < 20 | > 2000 | 5 to 50 | – | –
3 | COc1cc(N2CCC3CN(C)CCC32)ccc1Nc1ncc(Cl)c(Oc2cccc3c2C(=O)N(C)C32CC2)n1 (stereo not drawn) [Compound 168] | < 20 | > 2000 | < 5 | – | –
4 | COc1cc(N2CC3CN(C)CC3C2)ccc1Nc1ncc(Cl)c(Oc2cccc3c2C(=O)N(C)C32CC2)n1 (stereo not drawn) [Compound 169] | < 20 | > 2000 | < 5 | – | –
5 | COc1cc(N2CC3CCN(C)C3C2)ccc1Nc1ncc(Cl)c(Oc2cccc3c2C(=O)N(C)C32CC2)n1 (stereo not drawn) [Compound 170] | < 20 | > 2000 | 5 to 50 | – | –
6 | COc1cc(N2CCC3CN(C)CC32)ccc1Nc1ncc(Cl)c(Oc2cccc3c2C(=O)N(C)C32CC2)n1 (stereo not drawn) [Compound 172] | < 20 | > 2000 | 5 to 50 | – | –
7 | COc1cc(N2CCC3CN(C)CC3C2)ccc1Nc1ncc(Cl)c(Oc2cccc3c2C(=O)N(C)C32CC2)n1 (stereo not drawn) [Compound 173] | < 20 | > 2000 | < 5 | – | –
8 | COc1cc(C(=O)NC2CCN(C)CC2)c(F)cc1Nc1ncc(Br)c(Oc2cccc3c2C(=O)N(C)C32CC2)n1 [Compound 174, 4-((5-bromo-4-((2′-methyl-3′-oxospiro[cyclopropane-1,1′-isoindolin]-4′-yl)oxy)pyrimidin-2-yl)amino)-2-fluoro-5-methoxy-N-(1-methylpiperidin-4-yl)benzamide] | < 20 | > 2000 | < 5 | – | –
9 | COc1cc(C(=O)NC2CC3(CCN(C)CC3)C2)c(F)cc1Nc1ncc(Br)c(Oc2cccc3c2C(=O)N(C)C32CC2)n1 [Compound 175] | < 20 | > 2000 | < 5 | – | –
10 | COc1cc(C(=O)NC2CC3(CCN(C)CC3)C2)ccc1Nc1ncc(Br)c(Oc2cccc3c2C(=O)N(C)C32CC2)n1 [Compound 176] | < 20 | > 2000 | < 5 | – | –
11 | COc1cc(C2CCN(C)CC2)ccc1Nc1ncc(Br)c(Oc2cccc3c2C(=O)N(C)C32CC2)n1 [Compound 179] | < 20 | > 2000 | 5 to 50 | – | –
12 | COc1cc(C2CCN(C)CC2)c(F)cc1Nc1ncc(Br)c(Oc2cccc3c2C(=O)N(C)C32CC2)n1 [Compound 180] | < 20 | > 2000 | 5 to 50 | – | –
13 | COc1cc(N2CCC(N3CCN(C)CC3)CC2)c(F)cc1Nc1ncc(Br)c(Oc2cccc3c2C(=O)N(C)C32CC2)n1 [Compound 181] | < 20 | > 2000 | < 5 | – | –
14 | COc1cc(N2CCC(N3CCN(C)CC3)CC2)ccc1Nc1ncc(Br)c(Oc2cccc3c2C(=O)N(C)C32CC2)n1 [Compound 182] | < 20 | > 2000 | < 5 | – | –
15 | COc1cc(N2CCN(C)CC2)c(F)cc1Nc1ncc(Br)c(Oc2cccc3c2C(=O)N(C)C32CC2)n1 [Compound 183] | < 20 | > 2000 | 5 to 50 | – | –
16 | COc1cc(N2CCN(C)CC2)ccc1Nc1ncc(Br)c(Oc2cccc3c2C(=O)N(C)C32CC2)n1 [Compound 184] | < 20 | > 2000 | 5 to 50 | – | –
17 | COCCN1CCN(c2ccc(Nc3ncc(Br)c(Oc4cccc5c4C(=O)N(C)C54CC4)n3)c(OC)c2)CC1 [Compound 185] | < 20 | > 2000 | < 5 | – | –
18 | COCCN1CCN(c2cc(OC)c(Nc3ncc(Br)c(Oc4cccc5c4C(=O)N(C)C54CC4)n3)cc2F)CC1 [Compound 186] | < 20 | > 2000 | < 5 | – | –
19 | COc1cc(N2CCN(CC(=O)N(C)C)CC2)ccc1Nc1ncc(Br)c(Oc2cccc3c2C(=O)N(C)C32CC2)n1 [Compound 187] | < 20 | > 2000 | < 5 | – | –
20 | COc1cc(N2CC3(CN(C)C3)C2)ccc1Nc1ncc(Br)c(Oc2cccc3c2C(=O)N(C)C32CC2)n1 [Compound 188] | < 20 | > 2000 | 5 to 50 | – | –
21 | COc1cc(N2CCC3(CCN(C)CC3)CC2)ccc1Nc1ncc(Br)c(Oc2cccc3c2C(=O)N(C)C32CC2)n1 [Compound 189] | < 20 | > 2000 | < 5 | – | –
22 | COc1cc(N2CCC3(CC2)CN(C)C3)ccc1Nc1ncc(Br)c(Oc2cccc3c2C(=O)N(C)C32CC2)n1 [Compound 190] | < 20 | > 2000 | < 5 | – | –

Row | SMILES | IC50 [1] [nM] | IC50 [2, 4] [nM] | IC50 ([3]; Homo sapiens, PC-3, 336 h) [nM] | IC50 ([2]; read-out: 2D inhibitory activity against PC3 cells IC50) [nM] | IC50 [3] [nM]
23 | COc1cc(N2CCC(N(C)C)CC2)c(F)cc1Nc1ncc(Br)c(Oc2cccc3c2C(=O)N(C)C32CC2)n1 [Compound 191] | < 20 | > 2000 | 5 to 50 | – | –
24 | COc1cc(C(=O)NC2CCN(C)CC2)ccc1Nc1ncc(C#N)c(Oc2cccc3c2C(=O)N(C)C32CC2)n1 [Compound 192, 4-((5-cyano-4-((2′-methyl-3′-oxospiro[cyclopropane-1,1′-isoindolin]-4′-yl)oxy)pyrimidin-2-yl)amino)-3-methoxy-N-(1-methylpiperidin-4-yl)benzamide] | < 20 | > 2000 | < 5 | – | –
25 | COc1cc(C(=O)NC2CCN(C)CC2)c(F)cc1Nc1ncc(C#N)c(Oc2cccc3c2C(=O)N(C)C32CC2)n1 [Compound 193] | < 20 | > 2000 | < 5 | – | –
26 | COc1cc(C(=O)NC2CC3(CCN(C)CC3)C2)c(F)cc1Nc1ncc(C#N)c(Oc2cccc3c2C(=O)N(C)C32CC2)n1 [Compound 194] | < 20 | > 2000 | < 5 | – | –
27 | COc1cc(C(=O)NC2CC3(CCN(C)CC3)C2)ccc1Nc1ncc(C#N)c(Oc2cccc3c2C(=O)N(C)C32CC2)n1 [Compound 195] | < 20 | > 2000 | < 5 | – | –
28 | COc1cc(C2CCN(C)CC2)ccc1Nc1ncc(C#N)c(Oc2cccc3c2C(=O)N(C)C32CC2)n1 [Compound 198] | < 20 | > 2000 | 5 to 50 | – | –
29 | COc1cc(C2CCN(C)CC2)c(F)cc1Nc1ncc(C#N)c(Oc2cccc3c2C(=O)N(C)C32CC2)n1 [Compound 199] | < 20 | > 2000 | 5 to 50 | – | –
30 | COc1cc(N2CCC(N3CCN(C)CC3)CC2)ccc1Nc1ncc(C#N)c(Oc2cccc3c2C(=O)N(C)C32CC2)n1 [Compound 200] | < 20 | > 2000 | < 5 | – | –
31 | COc1cc(N2CCN(C)CC2)c(F)cc1Nc1ncc(C#N)c(Oc2cccc3c2C(=O)N(C)C32CC2)n1 [Compound 201] | < 20 | > 2000 | < 5 | – | –
32 | COc1cc(N2CCC3(CC2)CN(C)C3)ccc1Nc1ncc(C#N)c(Oc2cccc3c2C(=O)N(C)C32CC2)n1 [Compound 202] | < 20 | > 2000 | < 5 | – | –
33 | COc1cc(N2CC3(CCN(C)CC3)C2)ccc1Nc1ncc(Cl)c(Oc2cccc3c2C(=O)N(C)C32CCC2)n1 [Compound 203, 94′-((5-chloro-2-((2-methoxy-4-(7-methyl-2,7-diazaspiro[3.5]nonan-2-yl)phenyl)amino)pyrimidin-4-yl)oxy)-2′-methylspiro[cyclobutane-1,1′-isoindolin]-3′-one] | < 20 | – | – | > 2000 | < 5
34 | COc1cc(C(=O)NC2CC3(CCN(C)CC3)C2)c(F)cc1Nc1ncc(Cl)c(Oc2cccc3c2C(=O)N(C)C32CCC2)n1 [Compound 204] | < 20 | > 2000 | < 5 | – | –
35 | COc1cc(C(=O)NC2CCN(C)CC2)c(F)cc1Nc1ncc(Cl)c(Oc2cccc3c2C(=O)N(C)C32CCC2)n1 [Compound 205] | < 20 | > 2000 | < 5 | – | –
36 | COc1cc(N2CC3(CCN(C)CC3)C2)c(F)cc1Nc1ncc(Cl)c(Oc2cccc3c2C(=O)N(C)C32CCC2)n1 [Compound 206] | < 20 | > 2000 | < 5 | – | –
37 | COc1cc(N2CC3(CCN(C)CC3)C2)ccc1Nc1ncc(Cl)c(Oc2cccc3c2C(=O)N(C)C32CCCC2)n1 [Compound 207] | < 20 | > 2000 | 5 to 50 | – | –
38 | COc1cc(C(=O)NC2CC3(CCN(C)CC3)C2)c(F)cc1Nc1ncc(Cl)c(Oc2cccc3c2C(=O)N(C)C32CCCC2)n1 [Compound 208] | < 20 | > 2000 | > 50 | – | –
39 | COc1cc(N2CC3(CCN(C)CC3)C2)ccc1Nc1ncc(Cl)c(Oc2cccc3c2C(=O)N(C)C32CCCCC2)n1 [Compound 210] | < 20 | > 2000 | > 50 | – | –
40 | COc1cc(N2CC3(CCN(C)CC3)C2)c(F)cc1Nc1ncc(Cl)c(Oc2cccc3c2C(=O)N(C)C32CCCCC2)n1 [Compound 211] | < 20 | > 2000 | > 50 | – | –
41 | COc1cc(C(=O)NC2CCN(C)CC2)c(F)cc1Nc1ncc(Cl)c(Oc2cccc3c2C(=O)N(C)C32CCCCC2)n1 [Compound 212] | < 20 | > 2000 | > 50 | – | –
42 | COc1cc(N2CC3(CCN(C)CC3)C2)ccc1Nc1ncc(Cl)c(Oc2cccc3c2C(=O)N(C)C32CCOCC2)n1 [Compound 213] | < 20 | > 2000 | > 50 | – | –
43 | COc1cc(N2CC3(CCN(C)CC3)C2)c(F)cc1Nc1ncc(Cl)c(Oc2cccc3c2C(=O)N(C)C32CCOCC2)n1 [Compound 214] | < 20 | > 2000 | > 50 | – | –
44 | COc1cc(C(=O)NC2CCN(C)CC2)c(F)cc1Nc1ncc(Cl)c(Oc2cccc3c2C(=O)N(C)C32CCOCC2)n1 [Compound 215] | < 20 | > 2000 | > 50 | – | –
